Source: patent US11708374B2, “Preparation of condensed triazepine derivatives and their use as BET inhibitors” (DYBLY AG, priority 2018, dated 2023)
Read-outs that look alike come from different tables or passages of the source.

Legend:
[1] = tested on: Interleukin 1beta (IL-1beta), Interleukin 6 (IL6) and TNF-alpha; experiment: LPS-stimulated cytokine production in whole human blood; assay type: cell-based; details: 10 ng/ml LPS; for inhibition at 0.6 µM: 600 nM, 24 h, read-out: Inhibition of inflammatory cytokine production
Method: BET inhibitors were added (from 10 mM DMSO solutions) to whole human blood (anti-coagulated with heparin) during incubation for 24 h at 37° C. in the presence of 10 ng/ml Lipopolysaccharide (LPS). Final DMSO concentration was below 0.01%. Cytokines production with 0.01% DMSO alone in the absence of LPS were below detection level.

collagen1A1 = experiment: Anti-fibrotic effects: collagen1A1 production by LX2 cells treated with TGFbeta; assay type: cell-based; details: 500 nM
From the text: (§1) Methods of culturing LX2 cells and measurements of Collagen1A1 and alphaActin1 mRNA contents are provided in Ding et al, Proc Natl Acad Sci USA 2015, 112:15713-15718

alphaActin1 = experiment: Anti-fibrotic effects: alphaActin1 production by LX2 cells treated with TGFbeta; assay type: cell-based; details: 500 nM
From the text: as §1

BRD4 = BRD4 (Homo sapiens, UniProt O60885); experiment: AlphaScreen assay, Bromodomain 4 inhibition; assay type: binding
Method: AlphaScreen assays were performed as described by Philpott et al Mol Biosyst. […] YSGRGK(Ac)GGK(Ac)GLGK(Ac)GGAK(Ac)RHRK (Biotin) peptide was used in the assays. Buffer conditions used in all experiments were 25 mM HEPES, pH 7.4, 100 mM NaCl, 0.1% BSA, supplemented with 0.05% CHAPS.

HL-60 = experiment: Inhibition of proliferation (Alamar Blue cell viability), HL-60; assay type: cell-based; details: Homo sapiens; AML, HL-60, 72 h; read-out: Inhibition of cell growth, IC50
Method: (§2) A semi-log dilution was performed in 100% DMSO. Cells were cultured in DMEM containing 10% FCS and Penicillin/Streptomycin. For the assays, cells were seeded in 150 μL medium on a 96-well cell culture plate and incubated at 37° C. overnight before the compound was added. […] A day after cell seeding, 10 μL of prediluted compound was added to the cells (1:16 dilution). Treatment of cells with 0.1% DMSO and Staurosporine (1.0E-05 M) served as High control (100% viability) and Low control (0% viability), respectively
(§3) A day after cell seeding, the test compound was added to the medium to reach the final concentration and incubated for 72 h at 37° C. at 5% CO2 in air dependent on the medium. Subsequently 15 μL Alamar Blue reagent was added and fluorescence at 590 nm was measured after 3-5 h incubation at 37° C., 5% CO2 using a fluorometer.
(§4) Raw data were converted into percent cell viability relative to the high control (0.1% DMSO) and low control (1E-05M Staurosporine), which were set to 100% and 0%, respectively.

KG1 = experiment: Inhibition of proliferation (Alamar Blue cell viability), KG1; assay type: cell-based; details: Homo sapiens, KG-1; AML, KG1, 72 h; read-out: Inhibition of cell growth, IC50
Method: as §2, §3, §4

KMS-12-BM = experiment: Inhibition of proliferation (Alamar Blue cell viability), KMS-12-BM; assay type: cell-based; details: Homo sapiens, Multiple myeloma, 72 h, read-out: Inhibition of cell growth, IC50
Method: as §2, §3, §4

LP-1 = experiment: Inhibition of proliferation (Alamar Blue cell viability), LP-1; assay type: cell-based; details: Homo sapiens; Multiple myeloma, LP-1, 72 h; read-out: Inhibition of cell growth, IC50
Method: as §2, §3, §4

OPM-2 = experiment: Inhibition of proliferation (Alamar Blue cell viability), OPM-2; assay type: cell-based; details: Homo sapiens; Multiple myeloma, OPM-2, 72 h; read-out: Inhibition of cell growth, IC50
Method: as §2, §3, §4

CCL2 = experiment: Production of the chemokine CCL2 by cultured human astrocytes (CCL2 mRNA); assay type: cell-based; details: 250 nM, 24 h
Method: CCL2 mRNA content of control astrocytes, astrocytes incubated with 10 ug/ml Tumor Necrosis Factor alpha (TNFalpha) and 10 ug/ml Interferon alpha (IFNalpha) (T/I), astrocytes treated with 250 nM of “Compound 38” (referred to as “C4” in FIG. 2) and astrocytes which are pretreated with “Compound 38” (C4) for 1 hour before stimulation with T/I. Incubation period 24 h. Details on astrocyte culture and quantification of CCL2 mRNA are provided in Mizee et al. Acta Neuropathol (2014) 128:691-703. […] Co-addition of 250 nM of “Compound 38” decreased CCL2 production by 80% both in the absence and presence of TNFalpha/Interferon as shown in FIG. 2.

[2] = AlphaScreen, acetylated histone peptide, read-out: Potency as inhibitor of BRD4, IC-50

Structure (SMILES) | inhibition at 0.6 µM [1] [%] | Reduction of collagen1A1 production (collagen1A1) | Reduction of alphaActin1 production (alphaActin1) | IC50 (BRD4; [2]) [µM] | further results
Cc1sc2c(c1C)C(c1ccc(Cl)cc1)=N[C@@H](CC(=O)OC(C)(C)C)c1nnc(C)n1-2 [(+)JQ1, reference compound] | ~30 | reduced to an equal extent | reduced to an equal extent | – | –
Cc1sc2c(c1C)C(c1ccc(Cl)cc1)=NN(C)c1nnc(C)n1-2 [Compound 38, 4-(4-chlorophenyl)-2,3,6,9-tetramethyl-6H-thieno[2,3-e][1,2,4]triazolo[3,4-c][1,2,4]triazepine] | – | – | – | – | IC50 (BRD4): 0.15 µM; IC50 (HL-60): 0.81 µM; IC50 (KG1): 0.81 µM; IC50 (KMS-12-BM): 0.27 µM; IC50 (LP-1): 0.36 µM; IC50 (OPM-2): 0.26 µM; Decrease of CCL2 production (CCL2; absence of TNFalpha/Interferon): 80%; Decrease of CCL2 production (CCL2; presence of TNFalpha/Interferon): 80%
CCOC(=O)CN1N=C(c2ccc(Cl)cc2)c2c(sc(C)c2C)-n2c(C)nnc21 [Compound 41, Ethyl 2-(4-(4-chlorophenyl)-2,3,9-trimethyl-6H-thieno[2,3-e][1,2,4]triazolo[3,4-c][1,2,4]triazepin-6-yl)acetate] | > 80 | reduced to an equal extent | reduced to an equal extent | 0.011 | IC50 ([1]; 24 h at 37° C., read-out: Inhibition of production of IL-1beta, IL6 and TNF-alpha, IC50s): 0.006 to 0.06 µM
Cc1sc2c(c1C)C(c1ccc(Cl)cc1)=NN(CC(=O)O)c1nnc(C)n1-2.Cl [Compound 42, 2-(4-(4-chlorophenyl)-2,3,9-trimethyl-6H-thieno[2,3-e][1,2,4]triazolo[3,4-c][1,2,4]triazepin-6-yl)acetic acid hydrochloride] | – | less inhibition | less inhibition | 0.29 | –
Cc1sc2c(c1C)C(c1ccc(Cl)cc1)=NN(CC(=O)OC(C)(C)C)c1nnc(C)n1-2 [Compound 43, tert-butyl 2-(4-(4-chlorophenyl)-2,3,9-trimethyl-6H-thieno[2,3-e][1,2,4]triazolo[3,4-c][1,2,4]triazepin-6-yl)acetate] | – | less inhibition | less inhibition | 0.1 | –
